Test results published in patent US20220340597A1, “HEXAHYDRO-1H-PYRAZINO[1,2-A]PYRAZINE COMPOUNDS FOR THE TREATMENT OF AUTOIMMUNE DISEASE” (Hoffmann-La Roche Inc., priority 2019, published 2022).

Assays:
[1] = biological target: T1, human TLR9 (Homo sapiens, UniProt Q9NR96); experiment: HEK293-Blue-hTLR-9 cells assay; format: cell-based; settings: HEK293-Blue-hTLR9 cells, ODN2006 stimulation, 20 hrs, SEAP reporter; read-out: HEK/hTLR9 IC50
T1 construct: host or cells: HEK293 (HEK-Blue hTLR9)
T1 sequence (Q9NR96 26-1032): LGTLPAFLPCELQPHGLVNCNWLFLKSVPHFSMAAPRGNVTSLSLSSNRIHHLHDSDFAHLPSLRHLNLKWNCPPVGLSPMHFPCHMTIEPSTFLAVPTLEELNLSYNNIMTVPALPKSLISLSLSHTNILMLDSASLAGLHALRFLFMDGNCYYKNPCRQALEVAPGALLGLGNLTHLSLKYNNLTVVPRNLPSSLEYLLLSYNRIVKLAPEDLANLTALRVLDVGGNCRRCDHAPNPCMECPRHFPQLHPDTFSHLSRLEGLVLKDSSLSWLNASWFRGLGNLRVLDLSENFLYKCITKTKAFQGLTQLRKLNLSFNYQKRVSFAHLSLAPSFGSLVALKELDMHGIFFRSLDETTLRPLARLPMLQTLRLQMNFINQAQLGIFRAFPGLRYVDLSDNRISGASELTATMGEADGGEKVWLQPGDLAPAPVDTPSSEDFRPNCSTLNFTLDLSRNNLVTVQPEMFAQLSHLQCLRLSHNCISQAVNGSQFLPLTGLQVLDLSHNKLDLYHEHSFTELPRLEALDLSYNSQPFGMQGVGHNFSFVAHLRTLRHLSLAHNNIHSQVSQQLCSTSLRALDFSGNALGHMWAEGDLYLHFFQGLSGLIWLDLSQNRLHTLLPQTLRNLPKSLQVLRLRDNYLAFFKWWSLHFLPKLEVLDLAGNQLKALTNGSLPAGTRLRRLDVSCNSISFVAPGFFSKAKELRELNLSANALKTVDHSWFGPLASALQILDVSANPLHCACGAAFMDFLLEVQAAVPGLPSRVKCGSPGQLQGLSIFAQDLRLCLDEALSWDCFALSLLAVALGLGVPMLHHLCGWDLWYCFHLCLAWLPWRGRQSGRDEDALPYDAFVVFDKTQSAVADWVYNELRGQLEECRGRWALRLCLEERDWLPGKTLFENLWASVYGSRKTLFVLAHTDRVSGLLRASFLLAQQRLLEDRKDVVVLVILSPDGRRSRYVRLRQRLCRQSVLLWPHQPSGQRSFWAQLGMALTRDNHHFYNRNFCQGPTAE
Experimental: The following tests were carried out in order to determine the activity of the compounds of formula (I) and (Ia) in HEK293-Blue-hTLR-7/8/9 cells assay.
HEK293-Blue-hTLR-9 Cells Assay:
A stable HEK293-Blue-hTLR-9 cell line was purchased from InvivoGen (Cat. #: hkb-htlr9, San Diego, Calif., USA). These cells were originally designed for studying the stimulation of human TLR9 by monitoring the activation of NF-κB. A SEAP (secreted embryonic alkaline phosphatase) reporter gene was placed under the control of the […] minimal promoter fused to five NF-κB and AP-1-binding sites. The SEAP was induced by activating NF-κB and AP-1 via stimulating HEK-Blue hTLR9 cells with TLR9 ligands. Therefore, the reporter expression was declined by TLR9 antagonist under the stimulation of a ligand, such as ODN2006 (Cat. #: tlr1-2006-1, Invivogen, San Diego, Calif., USA), for incubation of 20 hrs. The cell culture supernatant SEAP reporter activity was determined using QUANTI-Blue™ kit (Cat. #: rep-qb1, Invivogen, San Diego, Calif., USA) at a wavelength of 640 nm, a detection medium that turns purple or blue in the presence of alkaline phosphatase.
Then 20 μL of the supernatant from each well was incubated with 180 μL Quanti-blue substrate solution at 37° C. for 2 h and the absorbance was read at 620-655 nm using a spectrophotometer. The signaling pathway that TLR9 activation leads to downstream NF-κB activation has been widely accepted, and therefore similar reporter assay was modified for evaluating TLR9 antagonist.

[2] = biological target: T2, hERG channel (Homo sapiens, UniProt Q12809); experiment: hERG channel inhibition assay (patch-clamp, CHOhERG cells); format: cell-based; settings: CHOhERG cells, whole-cell patch-clamp; for IC20: human, CHO cells stably expressing hERG (CHOhERG)
T2 construct: expressed in transfected cells; host or cells: CHO (Chinese hamster ovary), CHOhERG
T2 sequence (Q12809 whole entry): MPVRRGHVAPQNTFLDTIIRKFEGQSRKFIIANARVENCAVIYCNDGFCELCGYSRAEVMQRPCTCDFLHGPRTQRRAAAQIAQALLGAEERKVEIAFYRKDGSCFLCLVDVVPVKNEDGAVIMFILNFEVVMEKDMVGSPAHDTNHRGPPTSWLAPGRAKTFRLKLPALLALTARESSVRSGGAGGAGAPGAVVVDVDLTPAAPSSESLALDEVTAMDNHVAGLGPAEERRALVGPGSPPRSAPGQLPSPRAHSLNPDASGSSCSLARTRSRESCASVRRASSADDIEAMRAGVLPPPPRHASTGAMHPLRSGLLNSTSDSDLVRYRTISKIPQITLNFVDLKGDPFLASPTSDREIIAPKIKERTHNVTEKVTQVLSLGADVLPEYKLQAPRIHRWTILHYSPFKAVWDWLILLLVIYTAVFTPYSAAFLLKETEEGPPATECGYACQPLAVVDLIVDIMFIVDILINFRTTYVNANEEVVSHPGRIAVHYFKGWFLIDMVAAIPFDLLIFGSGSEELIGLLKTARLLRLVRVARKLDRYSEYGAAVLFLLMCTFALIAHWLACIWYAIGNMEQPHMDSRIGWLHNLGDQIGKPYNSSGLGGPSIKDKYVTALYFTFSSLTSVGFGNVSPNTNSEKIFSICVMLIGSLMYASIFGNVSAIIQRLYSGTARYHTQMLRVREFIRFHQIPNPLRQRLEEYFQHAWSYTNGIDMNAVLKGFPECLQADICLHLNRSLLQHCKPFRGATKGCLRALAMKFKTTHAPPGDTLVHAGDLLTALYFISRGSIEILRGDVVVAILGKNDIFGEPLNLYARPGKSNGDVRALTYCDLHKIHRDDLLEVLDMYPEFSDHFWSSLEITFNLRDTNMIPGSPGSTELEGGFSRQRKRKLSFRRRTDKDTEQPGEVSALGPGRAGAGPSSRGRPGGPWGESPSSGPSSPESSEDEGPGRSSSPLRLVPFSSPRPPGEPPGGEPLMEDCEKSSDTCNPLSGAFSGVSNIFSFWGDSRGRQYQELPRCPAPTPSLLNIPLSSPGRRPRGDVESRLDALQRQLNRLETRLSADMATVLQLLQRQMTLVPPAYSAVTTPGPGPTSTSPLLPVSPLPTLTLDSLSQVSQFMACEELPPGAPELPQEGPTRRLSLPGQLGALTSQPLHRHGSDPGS
Experimental: hERG Channel Inhibition Assay:
The hERG K^+ channels were cloned in humans and stably expressed in a CHO (Chinese hamster ovary) cell line. CHOhERG cells were used for patch-clamp (voltage-clamp, whole-cell) experiments. Cells were stimulated by a voltage pattern to activate hERG channels and conduct IKhERG currents (rapid delayed outward rectifier potassium current of the hERG channel). After the cells were stabilized for a few minutes, the amplitude and kinetics of IKhERG were recorded at a stimulation frequency of 0.1 Hz (6 bpm). Thereafter, the test compound was added to the preparation at increasing concentrations. For each concentration, an attempt was made to reach a steady-state effect, usually, this was achieved within 3-10 min at which time the next highest concentration was applied. The amplitude and kinetics of IKhERG are recorded in each concentration of the drug which were compared to the control values (taken as 100%). (references: Redfern W S, Carlsson L, Davis A S, Lynch W G, MacKenzie I, Palethorpe S, Siegl P K, Strang I, Sullivan A T, Wallis R, Camm A J, Hammond T G. 2003; Relationships between preclinical cardiac electrophysiology, clinical QT interval prolongation and torsade de pointes for a broad range of drugs: evidence for a provisional safety margin in drug development. Cardiovasc. Res. 58:32-45, Sanguinetti M C, Tristani-Firouzi M. 2006; hERG potassium channels and cardiac arrhythmia. Nature 440:463-469, Webster R, Leishman D, Walker D. 2002; Towards a drug concentration effect relationship for QT prolongation and torsades de pointes. Curr. Opin. Drug Discov. Devel. 5:116-26).
The calculation of hERG IC20/TLR7/8/9 IC50 below serves as early selectivity index to assess hERG liability.

IC50 [1] | Structure (SMILES) | IC50 [2] | IC20 [2]
81 nM | [2H]c1ccc2c(N3C[C@@H]4CN(c5ncc(N6CC7(CC(N)C7)C6)cc5C)CCN4[C@H](C)C3)ccc(C#N)c2n1 [Example 101, 5-[(4R,9aR)-8-[5-(6-amino-2-azaspiro[3.3]heptan-2-yl)-3-methyl-2-pyridyl]-4-methyl-3,4,6,7,9,9a-hexahydro-1H-pyrazino[1,2-a]pyrazin-2-yl]-2-deuterio-quinoline-8-carbonitrile] | – | –
78 nM | [2H]c1ccc2c(N3C[C@@H]4CN(CCc5ccc(N6C[C@@H](N)[C@@H](F)C6)nc5)CCN4[C@H](C)C3)ccc(C#N)c2n1 [Example 63, 5-[(4R,9aS)-8-[2-[6-[(3R,4S)-3-amino-4-fluoro-pyrrolidin-1-yl]-3-pyridyl]ethyl]-4-methyl-3,4,6,7,9,9a-hexahydro-1H-pyrazino[1,2-a]pyrazin-2-yl]-2-deuterio-quinoline-8-carbonitrile] | – | –
70 nM | [2H]c1ccc2c(N3C[C@@H]4CN(c5ncc(N6CCOC[C@H](N)C6)cc5C)CCN4[C@@H](C)C3)ccc(C#N)c2n1 [Example 110, 5-[(4S,9aR)-8-[5-[(6R)-6-amino-1,4-oxazepan-4-yl]-3-methyl-2-pyridyl]-4-methyl-3,4,6,7,9,9a-hexahydro-1H-pyrazino[1,2-a]pyrazin-2-yl]-2-deuterio-quinoline-8-carbonitrile] | – | –
117 nM | C[C@@H]1CN(c2ccc(C#N)c3ncccc23)C[C@H]2CN(c3cccc4c3CCNC4)CCN21 (relative stereo) [Example 47] | – | –

Continued, molecule first:

Structure (SMILES) | IC50 [1] | IC50 [2] | IC20 [2]
C[C@@H]1CN(c2ccc(C#N)c3ncccc23)C[C@@H]2CN(c3cncc4c3CCNC4)CCN21 [Example 44, 5-[(4R,9aR)-4-methyl-8-(5,6,7,8-tetrahydro-2,7-naphthyridin-4-yl)-3,4,6,7,9,9a-hexahydro-1H-pyrazino[1,2-a]pyrazin-2-yl]quinoline-8-carbonitrile] | 50 nM | – | –
C[C@@H]1CN(c2ccc(C#N)c3ncccc23)C[C@@H]2CN(CCc3ccc(N4C[C@@H](N)[C@H](F)C4)nc3)CCN21 [Example 18, 5-[(4R,9aS)-8-[2-[6-[(3R,4R)-3-amino-4-fluoro-pyrrolidin-1-yl]-3-pyridyl]ethyl]-4-methyl-3,4,6,7,9,9a-hexahydro-1H-pyrazino[1,2-a]pyrazin-2-yl]quinoline-8-carbonitrile] | 65 nM | – | –
C[C@@H]1CN(c2ccc(C#N)c3ncccc23)C[C@@H]2CN(CCc3ccc(N4C[C@@H](N)[C@@H](F)C4)nc3)CCN21 [Example 17, 5-[(4R,9aS)-8-[2-[6-[(3R,4S)-3-amino-4-fluoro-pyrrolidin-1-yl]-3-pyridyl]ethyl]-4-methyl-3,4,6,7,9,9a-hexahydro-1H-pyrazino[1,2-a]pyrazin-2-yl]quinoline-8-carbonitrile] | 47 nM | > 20000 nM | > 10000 nM
C[C@@H]1CN(c2ccc(C#N)c3ncccc23)C[C@H]2CN(c3cncc4c3CCNC4)CCN21 [Example 42, 5-[(4R,9aS)-4-methyl-8-(5,6,7,8-tetrahydro-2,7-naphthyridin-4-yl)-3,4,6,7,9,9a-hexahydro-1H-pyrazino[1,2-a]pyrazin-2-yl]quinoline-8-carbonitrile] | 50 nM | > 10000 nM | 4350 nM
